We go through one molecule from paper PMC9120478 (Nature Communications, 2022).

Where a chain is given by its changes, count along the chain named.

Experiment [1] deals with TRPV3 I674A gate residue mutant. The settings on record: cited from earlier work.
A further experiment addresses T1, TRPV3-F633A (Mus musculus, UniProt Q8K424, F633A).
T1 construct: expressed in transfected cells; host or cells: HEK 293 S GnTI- cells (baculovirus transduction)
T1 sequence (Q8K424 1-791 F633A): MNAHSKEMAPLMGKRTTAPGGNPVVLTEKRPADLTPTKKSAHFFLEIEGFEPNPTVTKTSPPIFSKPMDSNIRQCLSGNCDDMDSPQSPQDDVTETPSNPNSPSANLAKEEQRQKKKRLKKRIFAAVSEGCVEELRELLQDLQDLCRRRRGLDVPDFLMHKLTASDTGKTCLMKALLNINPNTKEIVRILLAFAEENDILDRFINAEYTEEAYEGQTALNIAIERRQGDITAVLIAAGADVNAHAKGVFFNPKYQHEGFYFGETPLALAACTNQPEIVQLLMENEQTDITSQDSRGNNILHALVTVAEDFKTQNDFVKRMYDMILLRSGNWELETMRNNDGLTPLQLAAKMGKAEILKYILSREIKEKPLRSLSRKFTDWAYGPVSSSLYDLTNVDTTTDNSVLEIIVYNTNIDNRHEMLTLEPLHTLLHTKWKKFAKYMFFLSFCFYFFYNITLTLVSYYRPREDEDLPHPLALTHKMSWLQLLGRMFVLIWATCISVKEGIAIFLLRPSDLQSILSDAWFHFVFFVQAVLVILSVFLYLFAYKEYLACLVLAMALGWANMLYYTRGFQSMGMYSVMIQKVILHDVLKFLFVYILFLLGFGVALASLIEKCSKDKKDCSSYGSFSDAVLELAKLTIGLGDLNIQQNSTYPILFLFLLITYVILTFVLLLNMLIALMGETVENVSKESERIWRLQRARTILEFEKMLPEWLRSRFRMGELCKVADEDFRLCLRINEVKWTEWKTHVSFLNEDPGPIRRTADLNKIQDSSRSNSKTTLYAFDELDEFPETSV
The experiment can be described thus: Fura-2 ratiometric Ca2+ uptake, inhibition of 2-APB-evoked response. Type of experiment: cell-based. From the text: The portal site in TRPV3 has not been previously shown to bind small-molecule inhibitors. This site, however, was originally proposed to be an entry pathway for local anesthetics to the pore of sodium channels[47]–[49] and found to accommodate cannabidiol in TRPV2, a closely-related representative of the vanilloid subfamily of TRP channels. […] We concluded that the Y594A mutation altered gating properties of TRPV3 and excluded this mutant from further analysis.
(§1) GFP-free C-terminally strep-tagged wild-type TRPV3, TRPV3-Y564A, TRPV3-Y594A, TRPV3-F633A, TRPV3-I663W, and TRPV3-F666A were expressed in HEK 293 S GnTI^− cells as previously described[41],[42],[53]. In short, 48 h after transduction, 1-ml aliquots of cell suspension were collected by centrifugation at 550 g for 5 min using an Eppendorf 5424 centrifuge. The cells were resuspended in the pre-warmed modified HEPES-buffered saline (HBS) containing 118 mM NaCl, 4.8 mM KCl, 1 mM MgCl2, 5 mM D-glucose, and 10 mM HEPES pH 7.4 and 5 μg/ml Fura-2 AM (Thermo Fisher Scientific) and incubated for 45 min at 37 °C. The Fura-2-loaded cells were then centrifuged for 5 min at 550 g, resuspended in the pre-warmed, modified HBS and incubated again for 30 min at 37 °C in the dark. The cells were subsequently pelleted and washed twice in the modified HBS. The washed cell pellets were kept on ice in the dark before taking an aliquot for fluorescence measurements. […] We used the lower CaCl2 concentration than before[42],[28] (2.5 mM) to minimize non-specific effects, which often appeared as a drift in the Fura-2 signal at high Ca^2+ concentration, presumably due to cell death as a result of calcium overload. Fluorescence measurements were conducted using a QuantaMaster 40 spectrofluorometer (Photon Technology International) at room temperature in a quartz cuvette under constant stirring. After 60 s since the beginning, the recording was paused and 2-APB was added. After the addition of 2-APB, the recording was continued for the additional 140 s. Changes in intracellular Ca^2+ were measured by taking the ratio of fluorescence emitted at 510 nm at the excitation wavelength of 340 nm and 380 nm. […] The data were processed using Origin 9.0 (OriginLab) software.

The target of the next experiment is T2, F666A mutant TRPV3 (Mus musculus, UniProt Q8K424, F666A).
T2 construct: expressed in transfected cells; host or cells: HEK 293 S GnTI- cells (baculovirus transduction)
T2 sequence (Q8K424 1-791 F666A): T1 sequence (Q8K424 1-791 F633A) with A633F, F666A
The experiment is described as above. The experiment is classed as cell-based. The settings on record: n = 3. How it is done: as §1

Take `CCCCOc1ccc(C(=O)CCN2CCCCC2)cc1` [dyclonine, 1-(4-butoxyphenyl)-3-piperidin-1-ylpropan-1-one]: the “inhibitory potency at I674A mutant” value in experiment [1] is “reduced inhibitory potency”. Also, the “IC50 of F633A compared to wild-type channels” value on TRPV3-F633A was “three times smaller”. The IC50 was found to be 9.8 ± 0.7 µM on TRPV3-F633A (200 µM 2-APB, n = 6, read-out: IC50, inhibition of F633A mutant) and 673 ± 37 µM against F666A mutant TRPV3 (HEK 293 GnTI- cells, 200 µM 2-APB after pre-incubation with inhibitor). In addition, the “nHill of inhibition curve, F633A” value at TRPV3-F633A (logistic fit, n = 6) worked out at 1.68 ± 0.19. Also, the “nHill of inhibition curve, F666A” value at F666A mutant TRPV3 (logistic fit) was 2.07 ± 0.08.
